Test results reported in ChEMBL document CHEMBL1201862, “PubChem BioAssay data set” (2004).
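Step 1: Grow cells in 96-well plates. Step 2: Expose to compound for 48 hours at 5 concentrations. Step 3: Interpolate endpoints linearly; if unreached, use highest concentration. At the GI50, growth is halved.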 The source made the active and inactive calls. Cut-off read from the data, not from the text of the source: active = GI50 up to about 1.1 µM and inactive = higher.

Legend:
Assay in all cases: inhibition of tumour cell growth, NCI panel, 48 h
Malme-3M = system: Malme-3M
SW-620 = system: SW-620
LOX IMVI = system: LOX IMVI
NCI-H226 = system: NCI-H226
HL-60 = system: HL-60
HCT-116 = system: HCT-116
OVCAR-5 = system: OVCAR-5
DMS-114 = system: DMS-114
OVCAR-4 = system: OVCAR-4
UACC-62 = system: UACC-62
IGROV-1 = system: IGROV-1
786-0 = system: 786-0
COLO 205 = system: COLO 205
EKVX = system: EKVX
NCI-H23 = system: NCI-H23
SK-OV-3 = system: SK-OV-3
CAKI-1 = system: CAKI-1
OVCAR-8 = system: OVCAR-8
BT-549 = system: BT-549
PC-3 = system: PC-3

Measured: GI50

COc1cc(-c2cc(CCC(=O)Nc3ccccc3[N+](=O)[O-])n(-c3ccc([N+](=O)[O-])cc3[N+](=O)[O-])n2)ccc1O
inactive: Malme-3M > 10 µM | SW-620 > 10 µM | LOX IMVI > 10 µM | NCI-H226 > 10 µM | HL-60 > 10 µM | HCT-116 > 10 µM | OVCAR-5 > 10 µM | DMS-114 > 10 µM | OVCAR-4 > 10 µM | UACC-62 38.4 µM | IGROV-1 > 10 µM | 786-0 > 10 µM | COLO 205 > 10 µM | EKVX > 10 µM | NCI-H23 > 10 µM | SK-OV-3 > 10 µM | CAKI-1 > 10 µM | OVCAR-8 > 10 µM

Clc1ccc(SC(/C=C/NNC2=NN=C(c3ccccc3)C(c3ccccc3)N2)c2ccccc2)cc1 (stereo not given)
inactive: Malme-3M 18.2 µM | SW-620 33.5 µM | LOX IMVI 21.9 µM | NCI-H226 13.4 µM | HL-60 14.6 µM | HCT-116 16.1 µM | OVCAR-5 33.8 µM | DMS-114 18.5 µM | OVCAR-4 17.9 µM | UACC-62 27.6 µM | IGROV-1 49.3 µM | 786-0 28.2 µM | COLO 205 20.8 µM | EKVX 26.9 µM | NCI-H23 10.4 µM | SK-OV-3 68.1 µM | CAKI-1 12.3 µM | OVCAR-8 28.2 µM

COCCOCOc1ccc(OCOCCOC)c2c1C(=O)c1ccccc1C2=O
inactive: Malme-3M 41.5 µM | SW-620 36.5 µM | LOX IMVI 27.9 µM | NCI-H226 90.2 µM | HL-60 18.4 µM | HCT-116 29.4 µM | OVCAR-5 > 100 µM | DMS-114 3.19 µM | OVCAR-4 59.4 µM | UACC-62 47.6 µM | IGROV-1 99.1 µM | 786-0 92.9 µM | COLO 205 54.1 µM | EKVX 38.3 µM | NCI-H23 74.1 µM | SK-OV-3 > 100 µM | CAKI-1 33.7 µM | OVCAR-8 45.4 µM

Cc1cc2c(cc1C)[n+]([O-])c(C(=O)/C=C/c1ccccc1[N+](=O)[O-])c(C)[n+]2[O-]
inactive: BT-549 > 81.8 µM | Malme-3M 57 µM | SW-620 > 100 µM | LOX IMVI 71.1 µM | NCI-H226 67.5 µM | PC-3 > 100 µM | HL-60 89.5 µM | HCT-116 70.8 µM | OVCAR-5 > 100 µM | DMS-114 17.8 µM | OVCAR-4 > 100 µM | UACC-62 40 µM | IGROV-1 > 80 µM | 786-0 33 µM | COLO 205 99.3 µM | EKVX 58.2 µM | NCI-H23 48.5 µM | SK-OV-3 > 46.7 µM | CAKI-1 47.2 µM | OVCAR-8 61.5 µM

O=C1CC2C=CC1C2CO (stereo not given)
inactive: Malme-3M > 100 µM | SW-620 > 100 µM | LOX IMVI > 100 µM | NCI-H226 > 100 µM | HL-60 > 100 µM | HCT-116 > 100 µM | OVCAR-5 > 100 µM | DMS-114 > 100 µM | OVCAR-4 > 100 µM | UACC-62 > 100 µM | IGROV-1 > 100 µM | 786-0 > 100 µM | COLO 205 > 100 µM | EKVX > 100 µM | SK-OV-3 > 100 µM | CAKI-1 > 100 µM | OVCAR-8 > 100 µM

COc1ccc2c(c1)C(=O)Cc1ccccc1CC2
inactive: Malme-3M > 100 µM | SW-620 > 100 µM | LOX IMVI > 100 µM | NCI-H226 > 100 µM | HL-60 > 100 µM | HCT-116 > 100 µM | OVCAR-5 > 100 µM | DMS-114 > 100 µM | OVCAR-4 > 100 µM | UACC-62 > 100 µM | IGROV-1 > 100 µM | 786-0 72.3 µM | COLO 205 > 100 µM | EKVX > 100 µM | NCI-H23 > 100 µM | SK-OV-3 > 100 µM | CAKI-1 > 100 µM | OVCAR-8 > 100 µM

OC1C2CCC1C1C3C=CC(C3)C21 (stereo not given)
inactive: Malme-3M > 100 µM | SW-620 > 100 µM | LOX IMVI 86.5 µM | NCI-H226 58.5 µM | HL-60 38.1 µM | HCT-116 79.4 µM | OVCAR-5 63.4 µM | DMS-114 59.6 µM | OVCAR-4 > 100 µM | UACC-62 > 100 µM | IGROV-1 > 100 µM | 786-0 > 100 µM | COLO 205 > 100 µM | EKVX > 100 µM | NCI-H23 52.1 µM | SK-OV-3 > 100 µM | CAKI-1 64.9 µM | OVCAR-8 > 100 µM

COc1cc2c(cc1O)[C@H](C)C(c1ccc(OC)c(OC)c1)O2 (stereo not given in full)
inactive: Malme-3M 10.3 µM | SW-620 4.2 µM | LOX IMVI 4.13 µM | NCI-H226 12.4 µM | HL-60 3.41 µM | HCT-116 3.6 µM | OVCAR-5 45.6 µM | DMS-114 3.56 µM | OVCAR-4 13 µM | UACC-62 3.09 µM | IGROV-1 2.04 µM | 786-0 11.3 µM | COLO 205 20.4 µM | EKVX 17.5 µM | NCI-H23 10.6 µM | SK-OV-3 9.48 µM | CAKI-1 3.67 µM | OVCAR-8 13.2 µM
